Read-outs that look alike come from different tables or passages of the source.
Legend:
XIAP = XIAP (Homo sapiens, UniProt P98170); assay: Immunoblotting (western blot) quantification of XIAP levels in MM.1S cells; details: MM1.S, 16 h
Method: (§1) To evaluate the capability of our panel of hetero-PROTACs for E3 ligase degradation, VHL19, VHL30, CRBN, cIAP1, cIAP2, and XIAP levels were quantified by western blot analyses. […] SDS-PAGE was performed, and proteins were then transferred onto PVDF membranes. Blotted membranes were blocked with 5% milk in Tris-buffered saline/Tween20 (TBST). Primary antibodies were diluted in 5% BSA in TBST, and incubations were performed overnight at 4 °C. Secondary HRP-conjugated antibodies diluted in 5% milk were incubated for 1 h at room temperature. Detection of proteins on PVDF was carried out using the WesternBright ECL HRP substrate or the WesternBright Sirius HRP substrate (Advansta, San Jose, USA) and imaged with LAS 4000× (Fujifilm). Membranes were subjected to 10 min incubation with Restore Western Blot Stripping Buffer (Thermo Fisher Scientific, Waltham, USA), followed by TBST washes. After brief re-activation with methanol, the membranes were blocked, and further probing of proteins was carried out.
(§2) Quantification of blots was performed using ImageJ software (National Institutes of Health).

cIAP1 = cIAP1 (Homo sapiens, UniProt Q13490); assay: Immunoblotting (western blot) quantification of cIAP1 levels in MM.1S cells; details: MM1.S, 16 h
VHL30 = VHL30 (Homo sapiens, UniProt P40337); assay: Immunoblotting (western blot) quantification of VHL30 levels in MM.1S cells; details: for remaining activity at 0.1 µM: MM1.S
Method: as §1, §2

cIAP2 = cIAP2 (Homo sapiens, UniProt Q13489); assay: Immunoblotting (western blot) quantification of cIAP2 levels in MM.1S cells; details: MM1.S, 16 h
[1] = test system: IAPs (cIAP1, cIAP2, XIAP); assay: Immunoblotting of IAPs in MM.1S cells, overall degradation profile, time course and washout; format: cell-based; details: 16 h, western blot, concentration (10 nM to 1 μM)
Method: Next, we examined the persistence of IAP degradation in MM.1S cells after a single exposure to 1 μM of 9 and subsequent removal of the compound. […] The reliance on CRL2^VHL was assessed with a neddylation inhibitor MLN4924, which blocks the activity of CRLs (Figure S13A).

[2] = Log D7.4 measurement by chromatographic (fast-gradient HPLC) method; details: pH 7.4
Method: The system was calibrated by plotting the retention times of six different drugs (atenolol, metoprolol, labetalol, diltiazem, triphenylene, and permethrin) versus their literature-known log D7.4 in a calibration line (R^2 = 0.99). Subsequently, the mean retention times of the analytes were taken to calculate their log D7.4 values with the aid of the calibration line. At least two independent measurements of each analyte were performed.

[3] = read-out: %remaining protein XIAP, MM.1S cells, 16 h treatment at 0.1 μM, normalized to loading control and DMSO
[4] = read-out: %remaining protein cIAP1, MM.1S cells, 16 h treatment at 0.1 μM, normalized to loading control and DMSO
[5] = 16 h, read-out: %remaining protein VHL30, MM.1S cells, 16 h treatment at 0.1 μM, normalized to loading control and DMSO
[6] = read-out: %remaining protein cIAP2, MM.1S cells, 16 h treatment at 0.1 μM, normalized to loading control and DMSO
[7] = read-out: %remaining protein XIAP
[8] = read-out: %remaining protein cIAP1
[9] = 16 h, read-out: %remaining protein VHL30
[10] = read-out: %remaining protein cIAP2

Sequence of XIAP (P98170 whole entry): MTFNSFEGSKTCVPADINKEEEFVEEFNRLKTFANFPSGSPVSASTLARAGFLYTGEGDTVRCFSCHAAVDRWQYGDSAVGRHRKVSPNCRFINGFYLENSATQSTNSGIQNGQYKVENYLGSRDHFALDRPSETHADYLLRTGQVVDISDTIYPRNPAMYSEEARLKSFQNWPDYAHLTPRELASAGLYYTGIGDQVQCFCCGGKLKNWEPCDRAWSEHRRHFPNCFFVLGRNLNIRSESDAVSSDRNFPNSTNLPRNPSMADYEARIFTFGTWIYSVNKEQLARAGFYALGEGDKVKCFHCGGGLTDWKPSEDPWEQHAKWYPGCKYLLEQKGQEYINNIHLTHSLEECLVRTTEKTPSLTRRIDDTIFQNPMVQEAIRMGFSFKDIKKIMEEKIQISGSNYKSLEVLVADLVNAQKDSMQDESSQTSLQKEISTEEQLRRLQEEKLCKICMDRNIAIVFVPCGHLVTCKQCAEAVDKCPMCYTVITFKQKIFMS
Sequence of cIAP2 (Q13489 whole entry): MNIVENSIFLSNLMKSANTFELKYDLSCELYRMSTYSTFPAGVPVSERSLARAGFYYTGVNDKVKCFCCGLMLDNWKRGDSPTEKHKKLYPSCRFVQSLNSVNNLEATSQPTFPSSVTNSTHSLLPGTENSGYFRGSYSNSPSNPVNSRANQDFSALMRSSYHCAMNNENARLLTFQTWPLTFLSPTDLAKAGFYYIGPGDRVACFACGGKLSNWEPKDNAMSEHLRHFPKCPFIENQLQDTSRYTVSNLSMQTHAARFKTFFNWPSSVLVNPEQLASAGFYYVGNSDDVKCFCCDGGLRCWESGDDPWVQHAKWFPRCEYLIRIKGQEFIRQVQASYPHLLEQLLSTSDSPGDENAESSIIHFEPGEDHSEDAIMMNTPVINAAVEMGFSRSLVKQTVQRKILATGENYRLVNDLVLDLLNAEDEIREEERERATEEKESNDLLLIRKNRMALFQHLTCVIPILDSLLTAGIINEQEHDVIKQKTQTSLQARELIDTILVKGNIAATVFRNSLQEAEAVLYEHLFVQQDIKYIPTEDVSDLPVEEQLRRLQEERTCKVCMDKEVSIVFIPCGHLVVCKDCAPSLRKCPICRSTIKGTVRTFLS
Sequence of cIAP1 (Q13490 whole entry): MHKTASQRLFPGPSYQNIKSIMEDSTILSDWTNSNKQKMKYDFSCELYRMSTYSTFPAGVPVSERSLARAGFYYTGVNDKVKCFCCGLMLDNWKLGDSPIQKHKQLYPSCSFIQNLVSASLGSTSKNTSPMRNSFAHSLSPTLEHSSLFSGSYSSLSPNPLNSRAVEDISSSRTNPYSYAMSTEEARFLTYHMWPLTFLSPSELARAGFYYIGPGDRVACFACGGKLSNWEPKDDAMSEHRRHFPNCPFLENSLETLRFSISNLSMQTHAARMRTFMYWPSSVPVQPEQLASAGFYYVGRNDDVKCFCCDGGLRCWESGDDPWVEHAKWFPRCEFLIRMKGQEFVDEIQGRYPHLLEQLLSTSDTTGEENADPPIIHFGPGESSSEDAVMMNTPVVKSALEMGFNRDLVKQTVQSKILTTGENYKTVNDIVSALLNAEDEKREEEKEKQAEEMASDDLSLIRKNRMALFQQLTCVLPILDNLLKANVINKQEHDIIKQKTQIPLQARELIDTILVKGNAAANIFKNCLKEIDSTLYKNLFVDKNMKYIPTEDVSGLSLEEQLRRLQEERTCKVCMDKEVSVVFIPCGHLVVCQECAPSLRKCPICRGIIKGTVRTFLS
Sequence of VHL30 (P40337 whole entry): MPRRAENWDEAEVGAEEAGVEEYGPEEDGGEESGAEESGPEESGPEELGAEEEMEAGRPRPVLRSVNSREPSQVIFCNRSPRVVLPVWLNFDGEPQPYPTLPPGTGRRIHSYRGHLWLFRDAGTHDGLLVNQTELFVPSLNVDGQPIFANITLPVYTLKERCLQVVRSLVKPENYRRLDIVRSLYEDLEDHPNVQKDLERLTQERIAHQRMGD

Row | remaining activity at 0.1 µM (XIAP; [3]) [%] | remaining activity at 0.1 µM (cIAP1; [4]) [%] | remaining activity at 0.1 µM (VHL30; [5]) [%] | remaining activity at 0.1 µM (cIAP2; [6]) [%] | SMILES | other results
1 | 4 | 3 | 95 | 36 | CN[C@@H](C)C(=O)N[C@H](C(=O)N1C[C@@H](Oc2cccc(OCCCCCCOCCCCCCOCCCCCC(=O)N[C@H](C(=O)N3C[C@H](O)C[C@H]3C(=O)NCc3ccc(-c4scnc4C)cc3)C(C)(C)C)c2)C[C@H]1C(=O)N[C@@H]1CCCc2ccccc21)C1CCCCC1 [PROTAC 8, (2S,4S)-1-((S)-2-Cyclohexyl-2-((S)-2-(methylamino)propanamido)acetyl)-4-(3-((6-((6-((6-(((S)-1-((2S,4R)-4-hydroxy-2-((4-(4-methylthiazol-5-yl)benzyl)carbamoyl)pyrrolidin-1-yl)-3,3-dimethyl-1-oxobutan-2-yl)amino)-6-oxohexyl)oxy)hexyl)oxy)hexyl)oxy)phenoxy)-N-((R)-1,2,3,4-tetrahydronaphthalen-1-yl)pyrrolidine-2-carboxamide] | –
2 | 2 | 2 | 37 | 37 | CN[C@@H](C)C(=O)N[C@H](C(=O)N1C[C@@H](Oc2cccc(OCCOCCOCCOCC(=O)N[C@H](C(=O)N3C[C@H](O)C[C@H]3C(=O)NCc3ccc(-c4scnc4C)cc3)C(C)(C)C)c2)C[C@H]1C(=O)N[C@@H]1CCCc2ccccc21)C1CCCCC1 [PROTAC 5, (2S,4R)-1-((S)-2-(tert-Butyl)-14-(3-(((3S,5S)-1-((S)-2-cyclohexyl-2-((S)-2-(methylamino)propanamido)acetyl)-5-(((R)-1,2,3,4-tetrahydronaphthalen-1-yl)carbamoyl)pyrrolidin-3-yl)oxy)phenoxy)-4-oxo-6,9,12-trioxa-3-azatetradecanoyl)-4-hydroxy-N-(4-(4-methylthiazol-5-yl)benzyl)pyrrolidine-2-carboxamide] | –
3 | 8 | 6 | 41 | 37 | CN[C@H](C)C(=O)N[C@H](C(=O)N1C[C@@H](Oc2cccc(OCCCCC(=O)N[C@H](C(=O)N3C[C@H](O)C[C@H]3C(=O)N[C@@H](C)c3ccc(-c4scnc4C)cc3)C(C)(C)C)c2)C[C@H]1C(=O)N[C@@H]1CCCc2ccccc21)C1CCCCC1 [PROTAC 10a, (2S,4S)-1-((S)-2-Cyclohexyl-2-((R)-2-(methylamino)propanamido)acetyl)-4-(3-((5-(((S)-1-((2S,4R)-4-hydroxy-2-(((S)-1-(4-(4-methylthiazol-5-yl)phenyl)ethyl)carbamoyl)pyrrolidin-1-yl)-3,3-dimethyl-1-oxobutan-2-yl)amino)-5-oxopentyl)oxy)phenoxy)-N-((R)-1,2,3,4-tetrahydronaphthalen-1-yl)pyrrolidine-2-carboxamide] | IAP degradation profile (in words) [1]: pan-IAP

More lines, now with the values behind:

Row | SMILES | remaining activity at 0.1 µM (XIAP; [3]) [%] | remaining activity at 0.1 µM (cIAP1; [4]) [%] | remaining activity at 0.1 µM (VHL30; [5]) [%] | remaining activity at 0.1 µM (cIAP2; [6]) [%] | other results
4 | Cc1ncsc1-c1ccc(CNC(=O)[C@@H]2C[C@@H](O)CN2C(=O)[C@@H](NC(=O)COCCOCCOCCOCCOCCOCC(=O)N[C@H](C(=O)N2C[C@H](O)C[C@H]2C(=O)NCc2ccc(-c3scnc3C)cc2)C(C)(C)C)C(C)(C)C)cc1 [CM11, reference compound] | – | – | – | – | VHL30 degradation (in words) (VHL30; MM.1S cells, western blot): strong and dose-dependent VHL30 degradation
5 | CN[C@@H](C)C(=O)N[C@H](C(=O)N1C[C@@H](Oc2cccc(OCCCCCCOCCCCCOCCCCC(=O)N[C@H](C(=O)N3C[C@H](O)C[C@H]3C(=O)NCc3ccc(-c4scnc4C)cc3)C(C)(C)C)c2)C[C@H]1C(=O)N[C@@H]1CCCc2ccccc21)C1CCCCC1 [PROTAC 7, (2S,4S)-1-((S)-2-Cyclohexyl-2-((S)-2-(methylamino)propanamido)acetyl)-4-(3-((6-((5-((5-(((S)-1-((2S,4R)-4-hydroxy-2-((4-(4-methylthiazol-5-yl)benzyl)carbamoyl)pyrrolidin-1-yl)-3,3-dimethyl-1-oxobutan-2-yl)amino)-5-oxopentyl)oxy)pentyl)oxy)hexyl)oxy)phenoxy)-N-((R)-1,2,3,4-tetrahydronaphthalen-1-yl)pyrrolidine-2-carboxamide] | – | – | – | – | remaining activity at 0.1 µM (XIAP; [7]): 3%; remaining activity at 0.1 µM (cIAP1; [8]): 2%; remaining activity at 0.1 µM (VHL30; [9]): 83%; remaining activity at 0.1 µM (cIAP2; [10]): 32%
6 | CN[C@@H](C)C(=O)N[C@H](C(=O)N1C[C@@H](Oc2cccc(OCCCCOCCCC(=O)N[C@H](C(=O)N3C[C@H](O)C[C@H]3C(=O)NCc3ccc(-c4scnc4C)cc3)C(C)(C)C)c2)C[C@H]1C(=O)N[C@@H]1CCCc2ccccc21)C1CCCCC1 [PROTAC 3, (2S,4S)-1-((S)-2-Cyclohexyl-2-((S)-2-(methylamino)propanamido)acetyl)-4-(3-(4-(4-(((S)-1-((2S,4R)-4-hydroxy-2-((4-(4-methylthiazol-5-yl)benzyl)carbamoyl)pyrrolidin-1-yl)-3,3-dimethyl-1-oxobutan-2-yl)amino)-4-oxobutoxy)butoxy)phenoxy)-N-((R)-1,2,3,4-tetrahydronaphthalen-1-yl)pyrrolidine-2-carboxamide] | 4 | 3 | 29 | 30 | VHL30 protein degradation (VHL30; MM.1S cells, 16 h, 0.1 μM, quantified by western blot): 71%
7 | CN[C@@H](C)C(=O)N[C@H](C(=O)N1C[C@@H](Oc2cccc(OCCCCCCOCCCCCCOCCCCCCNc3cccc4c3C(=O)N(C3CCC(=O)N(C)C3=O)C4=O)c2)C[C@H]1C(=O)N[C@@H]1CCCc2ccccc21)C1CCCCC1 (stereo partly drawn) [PROTAC 29, (2S,4S)-1-((S)-2-Cyclohexyl-2-((S)-2-(methylamino)propanamido)acetyl)-4-(3-((6-((6-((6-((2-(1-methyl-2,6-dioxopiperidin-3-yl)-1,3-dioxoisoindolin-4-yl)amino)hexyl)oxy)hexyl)oxy)hexyl)oxy)phenoxy)-N-((R)-1,2,3,4-tetrahydronaphthalen-1-yl)pyrrolidine-2-carboxamide] | – | – | – | – | chromatographic logD [2]: 7.4
8 | CN[C@@H](C)C(=O)N[C@H](C(=O)N1C[C@@H](Oc2cccc(OCCCCCCOCCCCCOCCCCCOc3cc(-c4scnc4C)ccc3CNC(=O)[C@@H]3C[C@@H](O)CN3C(=O)[C@H](C(C)C)N3Cc4ccccc4C3=O)c2)C[C@H]1C(=O)N[C@@H]1CCCc2ccccc21)C1CCCCC1 [PROTAC 18, (2S,4S)-1-((S)-2-Cyclohexyl-2-((S)-2-(methylamino)propanamido)acetyl)-4-(3-((6-((5-((5-(2-(((2S,4R)-4-hydroxy-1-((S)-3-methyl-2-(1-oxoisoindolin-2-yl)butanoyl)pyrrolidine-2-carboxamido)methyl)-5-(4-methylthiazol-5-yl)phenoxy)pentyl)oxy)pentyl)oxy)hexyl)oxy)phenoxy)-N-((R)-1,2,3,4-tetrahydronaphthalen-1-yl)pyrrolidine-2-carboxamide] | – | – | – | – | remaining activity at 0.1 µM (XIAP; [7]): 6%; remaining activity at 0.1 µM (cIAP1; [8]): 5%; chromatographic logD [2]: 5.6; remaining activity at 0.1 µM (VHL30; [9]): 88%; remaining activity at 0.1 µM (cIAP2; [10]): 37%

From publication PMC10108347, “Heterobifunctional Ligase Recruiters Enable pan-Degradation of Inhibitor of Apoptosis Proteins” (Journal of Medicinal Chemistry, 2023)
